“Also recorded” adds a separate entry of the source.

In assay [1] the target is T1, RED-NHS labeled recombinant PFKFB3 (Homo sapiens, UniProt Q16875).
T1 construct: His tag (N, cleaved yes); made in house; host or cells: Escherichia coli BL21 (DE3) Plys
The experiment in a line: Microscale thermophoresis (MST) binding assay. The following applies: for Binding Affinity: 100 nM RED-NHS labeled PFKFB3, 20 min at room temperature, Table 3; for KD: Table S3, list of synthesized peptides from VS. How it is done:
The PFKFB3 plasmid was provided by Prof. Yong-Hwan Lee from Louisiana State University. The His-tagged human inducible bifunctional enzyme (GenBank code: AF056320.1) was expressed in Escherichia coli BL21 (DE3) Plys as reported previously. The PFKFB3 protein was purified using nickel affinity columns and the N-terminal His tag was removed using a standard protocol. After the treatment with thrombin the protein was eluted with an anion-exchange column. The pure protein was concentrated to 2–10 mg/mL and stored in 20 mM Tris HCl pH 8.0, 10 mM NaPi, 5 mM β-mercaptoethanol and 5% glycerol.
The dissociation constant was determined using Nanotemper microscale thermophoresis (MST)[38]. In a typical experiment, a compound was dissolved in MST buffer and mixed with 100 nM RED-NHS labeled recombinant PFKFB3 in 1:1 ratio. The mixture was incubated at room temperature for 20 min. and a full MST measurement was performed. Data were analyzed with Nanotemper software (https://nanotempertech.com/monolith/).
(In MST a laser heats a spot of the sample, and binding alters the fluorescence response.)

The target in a further assay is T2, PFKFB3 bisphosphatase (Homo sapiens, UniProt Q16875).
T2 construct: His tag (N, cleaved yes); made in house; host or cells: Escherichia coli BL21 (DE3) Plys
T2 sequence (Q16875 whole entry): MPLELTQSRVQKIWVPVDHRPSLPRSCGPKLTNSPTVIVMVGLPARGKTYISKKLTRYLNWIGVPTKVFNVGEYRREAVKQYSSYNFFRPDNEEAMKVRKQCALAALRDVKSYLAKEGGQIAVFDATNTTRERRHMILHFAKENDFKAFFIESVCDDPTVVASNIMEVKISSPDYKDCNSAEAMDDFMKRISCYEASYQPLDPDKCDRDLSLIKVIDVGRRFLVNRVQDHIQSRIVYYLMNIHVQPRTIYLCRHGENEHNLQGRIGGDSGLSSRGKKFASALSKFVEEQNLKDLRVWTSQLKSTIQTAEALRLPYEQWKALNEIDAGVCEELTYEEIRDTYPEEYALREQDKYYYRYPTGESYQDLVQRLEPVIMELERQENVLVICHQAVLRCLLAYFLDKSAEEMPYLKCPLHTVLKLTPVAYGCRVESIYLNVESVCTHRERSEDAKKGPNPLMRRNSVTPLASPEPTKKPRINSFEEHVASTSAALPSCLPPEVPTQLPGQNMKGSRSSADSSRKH
The experiment in a line: PFKFB3 bisphosphatase activity by LC-MS/MS quantitation of F6P. It counts as biochemical. To be noted: for Effect on bisphosphatase activity / substrate conversion rate vs enzyme alone: Dunnett's multiple comparisons test (two-way ANOVA); for h, Hill coefficient (PFKFB3 in presence of compound) / Vmax (Hill equation, PFKFB3 in presence of compound): Hill fit of bisphosphatase kinetics; for h, Hill coefficient (PFKFB3 in presence of compound): enzyme alone 2.03; for Vmax (Hill equation, PFKFB3 in presence of compound): maximum velocity at enzyme saturation, enzyme alone 0.16; for Enzyme velocity: enzyme 100 nM, compound at 50 µM or equal to its KD, 18 h at 37 °C, Tris buffer pH 8, LC-MS/MS of F6P; for Khalf (Hill equation, PFKFB3 in presence of compound): substrate concentration giving half of maximum velocity, enzyme alone 21.51, in µM (unit assumed). How it is done: HPLC grade water (18 MΩ) was prepared with a Milli-Q purification system (Millipore, Milan, IT). Ammonium formate, fructose-6-phosphate (F6P), Tris HCl, glycerol, 2-mercaptoethanol, sodium phosphate and Amicon-ultra centrifugal filters (30 kDa) were purchased from Sigma Aldrich. F2,6BP was kindly provided by Prof. Lisardo Boscá from Spanish National Research Council in Madrid, Spain. Compound AZ 33 was provided by Carlo DeDominicis, University of Aberdeen. Phosphatase activity of PFKFB3 was measured by quantitation of the reaction product (i.e. F6P) by means of liquid chromatography tandem mass spectrometry. Enzyme reaction rate was determined after 18 h of incubation at 37 °C in sterile (0.22 µm filtered) Tris buffer (20 mM Tris-HCl pH 8; 10 mM sodium phosphate; 5 mM 2-mercaptoethanol and 5% of glycerol) at a final enzyme concentration of 100 nM. Both the enzyme and the substrate (i.e. fructose-2,6-bisphosphate, F2,6BP) were pre-warmed at 37 °C for five min before starting the kinetics by spiking the substrate into the enzyme solution. To plot the enzyme kinetics, the reaction rate was measured in independent experiments at different concentration of substrate (i.e. 5, 10, 15, 20, 25, 30, 40 and 50 µM). Diafiltration on amicon-ultra filters (30 kDa MWCO) was used to stop the reactions. Both the residual substrate and the product were collected in the filtrate, while the enzyme was retained by the filter. The same protocol was used to measure the effect of ligands on enzyme phosphatase activity. For such a purpose the reaction rate was measured at the same substrate concentrations, but the enzyme was incubated with the compound and pre-warmed before starting the kinetics. Compounds were incubated with the enzyme at a concentration 50 µM or equal to their KD, if available. Independent analyses were done without the enzyme (i.e. controls) to assess any degradation of the substrate in the same experimental condition used for the enzyme kinetics. The concentration of the […] produced by the kinetics was determined by interpolation with a calibration curve obtained by the analysis of fructose-6-phosphate standards prepared in a concentration range between 0.5 µM and 50 µM. The velocity was calculated as nanomoles of F6P produced in one min by a nanomole of PFKFB3, subtracting the nanomoles of F6P produced by self-degradation of the substrate from the nanomoles of F6P produced by the enzyme kinetic.
Quantitation of F6P produced was provided by a Surveyor HPLC system connected to a TSQ Quantum Ultra triple quadrupole mass spectrometer by a Finnigan IonMax electrospray ionization (ESI) source assembled with a high flow stainless steel emitter (Thermo Scientific, Rodano, MI, Italy). Filtrate containing the kinetics products were diluted 1:4 in water and placed into the autosampler rack, which was cooled at 8 °C to prevent sample degradation during analyses. […] Table 1 reports the mobile phases and gradient program used for the elution.
The flow from the column was directly sprayed into the mass spectrometer with no further splitting. Nebulization and ionization were achieved by 70 units of sheath gas, 25 units of auxiliary gas, a capillary temperature of 270 °C and a spray voltage of −4.5 kV. The analyzer was set to scan the negative ions reported in Table 2 in Multiple Reaction Monitoring mode (MRM), with a scan time of 0.05 seconds and a resolution of 0.5 m/z for both the first and the third quadrupoles. The MRM transitions reported in Table 2 were previously optimized in a semi-automatic mode to achieve the best instrumental response and selectivity for fructose-6-phosphate, by flow injection of a standard solution.
In order to determine the effect of the PFKFB3-binding compounds on the bisphosphatase activity, a LC-MS/MS analytical method was developed. Firstly, separate kinetics were measured for the enzyme alone or equilibrated with compounds 4–8. […]

The mark [2] stands for this setting: substrate F2,6BP 20 µM, asterisks = significance vs enzyme alone (two-way ANOVA, Dunnett).
Setting [3] is: substrate F2,6BP 25 µM, asterisks = significance vs enzyme alone.
The mark [4] stands for this setting: substrate F2,6BP 30 µM, asterisks = significance vs enzyme alone.
[5] abbreviates: substrate F2,6BP 40 µM, asterisks = significance vs enzyme alone.
The mark [6] stands for this setting: substrate F2,6BP 50 µM, asterisks = significance vs enzyme alone.

T1 sequence (Q16875 whole entry): as above

On to SFLLRN-CONH2 [Compound 7], for which, in assay [1], the “Binding Affinity” value is given as “not able to bind the enzyme; also recorded: No evidence of binding” and the KD entry is “No binding”. Further, at PFKFB3 bisphosphatase, the “Effect on bisphosphatase activity / substrate conversion rate vs enzyme alone” value is “no significant variations”; the “h, Hill coefficient (PFKFB3 in presence of compound)” value (“h, Hill coefficient” for short) is 1.95; the “Vmax (Hill equation, PFKFB3 in presence of compound)” value (from here on “Vmax”) amounted to 0.19; the “Khalf (Hill equation, PFKFB3 in presence of compound)” value (“Khalf” for short) was determined as 28.12. The Enzyme velocity on PFKFB3 bisphosphatase (setting [2]) is on record as 0.07 ± 0.01 nmol/min of F6P per nmol of enzyme. For the same molecule, the Enzyme velocity at PFKFB3 bisphosphatase (setting [3]) is reported as 0.07 ± 0.04 nmol/min of F6P per nmol of enzyme. Further, the Enzyme velocity on PFKFB3 bisphosphatase (setting [4]) is recorded as 0.11 ± 0.04 nmol/min of F6P per nmol of enzyme. Also, on PFKFB3 bisphosphatase (setting [5]), the Enzyme velocity is recorded as 0.14 ± 0.01 nmol/min of F6P per nmol of enzyme. For the same molecule, at PFKFB3 bisphosphatase (setting [6]), the Enzyme velocity was 0.14 ± 0.01 nmol/min of F6P per nmol of enzyme.

As to Trp-Gly-Tyr [Compound 8], in assay [1], the “Binding Affinity” value is “not able to bind the enzyme; also recorded: No evidence of binding” and the KD entry is “No binding”. Moreover, at PFKFB3 bisphosphatase, the “Effect on bisphosphatase activity / substrate conversion rate vs enzyme alone” value is “no significant variations”; the “h, Hill coefficient” value is given as 2.24; the “Vmax” value was 0.21; the “Khalf” value worked out at 32.83. In addition, the Enzyme velocity on PFKFB3 bisphosphatase (setting [2]) is reported as 0.06 ± 0.03 nmol/min of F6P per nmol of enzyme. Besides, the Enzyme velocity at PFKFB3 bisphosphatase (setting [3]) is reported as 0.05 ± 0.00 nmol/min of F6P per nmol of enzyme. At PFKFB3 bisphosphatase (setting [4]), the Enzyme velocity is given as 0.10 ± 0.01 nmol/min of F6P per nmol of enzyme. The Enzyme velocity on PFKFB3 bisphosphatase (setting [5]) is listed as 0.14 ± 0.05 nmol/min of F6P per nmol of enzyme. Further, the Enzyme velocity at PFKFB3 bisphosphatase (setting [6]) is recorded as 0.14 ± 0.04 nmol/min of F6P per nmol of enzyme.

`CC(C)C[C@H](NC(=O)[C@H](Cc1ccccc1)NC(=O)CNC(=O)[C@H](CO)NC(=O)[C@@H](N)Cc1ccc(O)cc1)C(=O)N[C@H](C(=O)O)[C@@H](C)O` [Compound 4]: the “Effect on bisphosphatase activity / substrate conversion rate vs enzyme alone” value on PFKFB3 bisphosphatase is “no significant variations”. In addition, at PFKFB3 bisphosphatase, the “h, Hill coefficient” value worked out at 2.39. Moreover, the “Vmax” value at PFKFB3 bisphosphatase was 0.18. The Enzyme velocity on PFKFB3 bisphosphatase (setting [2]) is recorded as 0.05 ± 0.03 nmol/min of F6P per nmol of enzyme; at PFKFB3 bisphosphatase (setting [3]), 0.07 ± 0.04 nmol/min of F6P per nmol of enzyme; on PFKFB3 bisphosphatase (setting [4]), 0.12 ± 0.03 nmol/min of F6P per nmol of enzyme; at PFKFB3 bisphosphatase (setting [5]) it was 0.13 ± 0.04 nmol/min of F6P per nmol of enzyme; on PFKFB3 bisphosphatase (setting [6]) it was 0.14 ± 0.01 nmol/min of F6P per nmol of enzyme. Also, on PFKFB3 bisphosphatase, the “Khalf” value is listed as 26.54.

For the origin of these results see PMC6937325, “Tuning PFKFB3 Bisphosphatase Activity Through Allosteric Interference” (Scientific Reports, 2019).
